# Source: patent US10583111B2, “Method for preventing or treating diseases associated with the inhibition of EGFR” (priority 2017, dated 2020)
# Legend:
# [1] = tested on: Human Oral Keratinocytes (HOK); assay: Proliferative toxicity of EGFR inhibitor on Human Oral Keratinocytes (HOK) and ameliorating effect of nitric oxide releasing agent (CCK-8); type: cell-based; conditions: one merged result for Erlotinib 10 μM, Afatinib 5 μM, Osimertinib 20 μM, agent 200 μM, 48 hrs
# Method: The cultured Human Oral Keratinocytes (HOK) were digested, counted, and seeded to a 96-well plate with 5000-10000 cells per well. After the cells were attached, the supernatant was discarded. The wells were divided to the blank control group, the EGFR inhibitor group, the EGFR inhibitor+nitric oxide releasing agent group and blank solvent control group. EGFR inhibitor group: 100 μL of the EGFR inhibitor solution was added (the final concentration was listed in Table 4, all the EGFR inhibitor solution that are DMSO solution); the EGFR inhibitor+nitric oxide releasing agent group: the EGFR inhibitor solution and the nitric oxide releasing agent solution were added (the final concentrations of the EGFR inhibitor and the nitric oxide releasing agent were listed in Table 4, and depending on the solubility of the nitric oxide releasing agents, the nitric oxide releasing agent solution was ethanol solution or aqueous solution); the blank control group: except the normal replacement of medium, no additional solution was added; a plurality of blank solvent control group: an equal volume of the same type of solvent as the corresponding EGFR inhibitor group or the EGFR inhibitor+nitric oxide releasing agent group was added. […] After additional 48 hrs of culture, the survival rate of cells was determined by Cell Counting Kit-8 (CCK-8) assay kit (C0037, Shanghai Beyotime Biotechnology Inc., Beyotime Biotechnology), to calculate the proliferative toxicity of the EGFR inhibitor to cells and the ameliorating effect of the nitric oxide releasing agent to the proliferative toxicity. GraphPad Prism 6.0 Software and t-test were used to carry out a statistic analysis of the results and plot a graph.
# [2] = tested on: small intestine epithelial cells FHs 74 Int; assay: Proliferative toxicity of EGFR inhibitor to small intestine epithelial cell FHs 74 Int and ameliorating effect of nitric oxide releasing agent (CCK-8); type: cell-based; conditions: one merged result for Erlotinib 10 μM, Afatinib 5 μM, Osimertinib 20 μM, agent 200 μM, 48 hrs
# Method: The cultured small intestine epithelial cells FHs 74 Int were digested, counted, and seeded to a 96-well plate with 5000-10000 cells per well. After the cells were attached, the supernatant was discarded. The wells were divided to the blank control group, the EGFR inhibitor group, the EGFR inhibitor+nitric oxide releasing agent group and blank solvent control group.
# EGFR inhibitor group: 100 μL of the EGFR inhibitor solution was added (the final concentration was listed in Table 3, all the EGFR inhibitor solution are DMSO solution); the EGFR inhibitor+nitric oxide releasing agent group: the EGFR inhibitor solution and the nitric oxide releasing agent solution were added (the final concentrations of the EGFR inhibitor and the nitric oxide releasing agent were listed in Table 3, and depending on the solubility of the nitric oxide releasing agents, the nitric oxide releasing agent solution was ethanol solution or aqueous solution); the blank control group: except the normal replacement of medium, no additional solution was added; a plurality of blank solvent control group: an equal volume of the same type of solvent as the corresponding EGFR inhibitor group or the EGFR inhibitor+nitric oxide releasing agent group was added. […] After additional 48 hrs of culture, the survival rate of cells was determined by Cell Counting Kit-8 (CCK-8) assay kit (C0037, Shanghai Beyotime Biotechnology Inc., Beyotime Biotechnology), to calculate the proliferative toxicity of the EGFR inhibitor to cells and the ameliorating effect of the nitric oxide releasing agent to the proliferative toxicity. GraphPad Prism 6.0 Software and t-test were used to carry out a statistic analysis of the results and plot a graph.
# [3] = tested on: human foreskin fibroblasts (HFF); assay: Proliferative toxicity of EGFR inhibitor on HFF and ameliorating effect of nitric oxide releasing agent (CCK-8); type: cell-based; conditions: one merged result for Erlotinib 10 μM, Afatinib 5 μM, Osimertinib 20 μM, agent 200 μM, 48 hrs
# Method: The cultured human foreskin fibroblasts (HFF) were digested, counted, and seeded to a 96-well plate with 5000-10000 cells per well. After the cells were attached, the supernatant was discarded. The wells were divided to the blank control group, the EGFR inhibitor group, the EGFR inhibitor+nitric oxide releasing agent group and blank solvent control group. EGFR inhibitor group: 100 μL of the EGFR inhibitor solution was added (the final concentration was listed in Table 6, the EGFR inhibitor solutionare DMSO solution); the EGFR inhibitor+nitric oxide releasing agent group: the EGFR inhibitor solution and the nitric oxide releasing agent solution were added (the final concentrations of the EGFR inhibitor and the nitric oxide releasing agent were listed in Table 6, and depending on the solubility of the nitric oxide releasing agents, the nitric oxide releasing agent solution was ethanol solution or aqueous solution); the blank control group: except the normal replacement of medium, no additional solution was added; a plurality of blank solvent control group: an equal volume of the same type of solvent as the corresponding EGFR inhibitor group or the EGFR inhibitor+nitric oxide releasing agent group was added. […] After additional 48 hrs of culture, the survival rate of cells was determined by Cell Counting Kit-8 (CCK-8) assay kit (C0037, Shanghai Beyotime Biotechnology Inc., Beyotime Biotechnology), to calculate the proliferative toxicity of the EGFR inhibitor to cells and the ameliorating effect of the nitric oxide releasing agent to the proliferative toxicity. GraphPad Prism 6.0 Software and t-test were used to carry out a statistic analysis of the results and plot a graph.
# skin cells HaCaT = assay: Proliferative toxicity of EGFR inhibitor on skin cells HaCaT and ameliorating effect of nitric oxide releasing agents (CCK-8); type: cell-based; conditions: 48 hrs
# Method: The cultured skin cell HaCaT were digested, counted, and seeded in a 96-well plate with 5000-10000 cells per well. After the cells were attached, the supernatant was discarded. The wells were divided to the blank control group, the EGFR inhibitor group, the EGFR inhibitor+nitric oxide releasing agent group and the blank solvent control group. The EGFR inhibitor group: 100 μL of the EGFR inhibitor solution was added (the final concentration was shown in Table 2; Cetuximab was in an aqueous solution, besides which each of other EGFR inhibitors were in a solution containing DMSO); the EGFR inhibitor+nitric oxide releasing agent group: the EGFR inhibitor solution and the nitric oxide releasing agent solution were added (the final concentration of the EGFR inhibitor and nitric oxide releasing agent were shown in Table 2, and depending on the solubility of the nitric oxide releasing agent, the nitric oxide releasing agent solution was an ethanol solution or an aqueous solution); the blank control group: except the normal replacement of the medium, no additional solution was added; a plurality of blank solvent control groups: an equal volume of the same type of solvent as the corresponding EGFR inhibitor group or the EGFR inhibitor+nitric oxide releasing agent was added. […] After additional culture for 48 hrs, the survival rate of cells was measured by Cell Counting Kit-8 (CCK-8) assay kit (C0037, purchased from Shanghai Beyotime Biotechnology Inc.) to calculate the proliferative toxicity of the EGFR inhibitor to cells and the ameliorating effect of the nitric oxide releasing agent to the proliferative toxicity.
# [4] = tested on: human umbilical vein endothelial cells (HUVEC); assay: Proliferative toxicity of EGFR inhibitor on HUVEC and ameliorating effect of nitric oxide releasing agent (CCK-8); type: cell-based; conditions: 48 hrs
# Method: The cultured human umbilical vein endothelial cells (HUVECs) were digested, counted, and seeded to a 96-well plate with 5000-10000 cells per well. After the cells were attached, the supernatant was discarded. The wells were divided to the blank control group, the EGFR inhibitor group, the EGFR inhibitor+nitric oxide releasing agent group and blank solvent control group.
# EGFR inhibitor group: 100 μL of the EGFR inhibitor solution was added (the final concentration was listed in Table 5, the EGFR inhibitor solution are DMSO solution); the EGFR inhibitor+nitric oxide releasing agent group: the EGFR inhibitor solution and the nitric oxide releasing agent solution were added (the final concentrations of the EGFR inhibitor and the nitric oxide releasing agent were listed in Table 5, and depending on the solubility of the nitric oxide releasing agents, the nitric oxide releasing agent solution was ethanol solution or aqueous solution); the blank control group: except the normal replacement of medium, no additional solution was added; a plurality of blank solvent control group: an equal volume of the same type of solvent solution as the corresponding EGFR inhibitor group or the EGFR inhibitor+nitric oxide releasing agent group was added. The blank solvent control group was used for data correction to eliminate the effect of solvent to the result in the EGFR inhibitor group and the EGFR inhibitor+nitric oxide releasing agent group. After additional 48 hrs of culture, the survival rate of cells was determined by Cell Counting Kit-8 (CCK-8) assay kit (C0037, Shanghai Beyotime Biotechnology Inc., Beyotime Biotechnology), to calculate the proliferative toxicity of the EGFR inhibitor to cells and the ameliorating effect of the nitric oxide releasing agent to the proliferative toxicity. GraphPad Prism 6.0 Software and t-test were used to carry out a statistic analysis of the results and plot a graph. […]
# [5] = tested on: intracellular NO level in HUVEC; assay: Effect of the EGFR inhibitor on the intracellular NO levels, HUVEC; type: cell-based, human; conditions: 20 μM, 12-24 hrs, cell lysate
# Method: (§1) The cultured HaCaT, HUVEC and hMSC were respectively digested, counted, and seeded into 6-well plates with 100,000-600,000 cells per well. After the cells were attached, the supernatant was discarded, and 1.5 mL of the EGFR inhibitor solution diluted to the final concentration as shown in Table 7 was added into the wells of the 6-well plates, wherein no additional solution was added to the blank control group, except the normal replacement of basic medium. After 12-24 hrs of addition of the EGFR inhibitor, the supernatant was discarded, while 100 μL of a cell lysis solution was added to the cells in the 6-well plates (specifically for the detection of nitric oxide, 53090, Beyotime Inc.). After 30 s of lysis, 50 μL cell lysis solution was taken. The NO level in the cell lysis solution was detected by using NO assay kit (S0021, Beyotime Inc.). GraphPad Prism 6.0 Software and t-test were used to carry out a statistic analysis of the results and plot a graph.
# [6] = tested on: intracellular NO level in hMSC; assay: Effect of the EGFR inhibitor on the intracellular NO levels, hMSC; type: cell-based; conditions: hMSCs; 20 μM; 12-24 hrs; cell lysate
# Method: as §1
# [7] = tested on: intracellular NO level in HaCaT; assay: Effect of the EGFR inhibitor on the intracellular NO levels, HaCaT; type: cell-based; conditions: 20 μM, 12-24 hrs, cell lysate
# Method: as §1
# [8] = Afatinib 5 μM + nitric oxide releasing agent 200 μM
# [9] = Cetuximab 100-200 μg/mL + nitric oxide releasing agent 200 μM
# [10] = Erlotinib 10 μM + nitric oxide releasing agent 200 μM
# [11] = Osimertinib 20 μM + nitric oxide releasing agent 200 μM
SMILES,Cell Survival Rate: percentage of viable cells increased vs EGFR inhibitor group [1],Cell Survival Rate: percentage of viable cells increased vs EGFR inhibitor group [2],Cell Survival Rate: percentage of viable cells increased vs EGFR inhibitor group [3],Cell Survival Rate: percentage of viable cells increased vs EGFR inhibitor group (skin cells HaCaT; [8]),Cell Survival Rate: percentage of viable cells increased vs EGFR inhibitor group (skin cells HaCaT; [9]),Cell Survival Rate: percentage of viable cells increased vs EGFR inhibitor group (skin cells HaCaT; [10]),Cell Survival Rate: percentage of viable cells increased vs EGFR inhibitor group (skin cells HaCaT; [11]),also measured
"CC(C)CCON=O [Isoamyl nitrite, isoamyl nitrite]",25-35%,25%-35%,30-80%,by 35-45%,by 35-45%,by 75-85%,by 35-45%,
"O=[N+]([O-])OCC(CO[N+](=O)[O-])O[N+](=O)[O-] [Nitroglycerin, nitroglycerin]",20-30%,15%-35%,30-90%,by 85-95%,by 35-45%,by 65-75%,by 35-45%,Cell Survival Rate: percentage of viable cells increased vs EGFR inhibitor group ([4]; Afatinib 5 μM + agent 200 μM): 15-20%; Cell Survival Rate: percentage of viable cells increased vs EGFR inhibitor group ([4]; Erlotinib 10 μM + agent 200 μM): 20-30%; Cell Survival Rate: percentage of viable cells increased vs EGFR inhibitor group ([4]; Osimertinib 20 μM + agent 200 μM): 90-100%; Cell Survival Rate: percentage of viable cells increased vs EGFR inhibitor group (skin cells HaCaT; Canertinib 10 μM + nitric oxide releasing agent 200 μM): by 55-65%; Cell Survival Rate: percentage of viable cells increased vs EGFR inhibitor group (skin cells HaCaT; EAI045 20 μM + nitric oxide releasing agent 200 μM): by 65-75%; Cell Survival Rate: percentage of viable cells increased vs EGFR inhibitor group (skin cells HaCaT; Gefitinib 10 μM + nitric oxide releasing agent 200 μM): by 65-75%; Cell Survival Rate: percentage of viable cells increased vs EGFR inhibitor group (skin cells HaCaT; Icotinib 10 μM + nitric oxide releasing agent 200 μM): by 65-75%; Cell Survival Rate: percentage of viable cells increased vs EGFR inhibitor group (skin cells HaCaT; Lapatinib 10 μM + nitric oxide releasing agent 200 μM): by 55-65%; Cell Survival Rate: percentage of viable cells increased vs EGFR inhibitor group (skin cells HaCaT; Nazartinib 10 μM + nitric oxide releasing agent 200 μM): by 55-65%; Cell Survival Rate: percentage of viable cells increased vs EGFR inhibitor group (skin cells HaCaT; Neratinib 10 μM + nitric oxide releasing agent 200 μM): by 65-75%; Cell Survival Rate: percentage of viable cells increased vs EGFR inhibitor group (skin cells HaCaT; Olmutinib 10 μM + nitric oxide releasing agent 200 μM): by 35-45%; Cell Survival Rate: percentage of viable cells increased vs EGFR inhibitor group (skin cells HaCaT; Poziotinib 10 μM + nitric oxide releasing agent 200 μM): by 55-65%; Cell Survival Rate: percentage of viable cells increased vs EGFR inhibitor group (skin cells HaCaT; Rociletinib 10 μM + nitric oxide releasing agent 200 μM): by 65-75%; Cell Survival Rate: percentage of viable cells increased vs EGFR inhibitor group (skin cells HaCaT; Sapitinib 10 μM + nitric oxide releasing agent 200 μM): by 55-65%; Cell Survival Rate: percentage of viable cells increased vs EGFR inhibitor group (skin cells HaCaT; Vandetanib 10 μM + nitric oxide releasing agent 200 μM): by 55-65%; Cell Survival Rate: percentage of viable cells increased vs EGFR inhibitor group (skin cells HaCaT; Varlitinib 10 μM + nitric oxide releasing agent 200 μM): by 35-45%
C#Cc1cccc(Nc2ncnc3cc(OCCOC)c(OCCOC)cc23)c1 [Erlotinib],,,,,,,,NO Level: percentage of NO concentration decreased vs control group [5]: 22%; NO Level: percentage of NO concentration decreased vs control group [6]: 30%; NO Level: percentage of NO concentration decreased vs control group [7]: 28%
"NCCN(CCN)[N+]([O-])=NO [NOC-18, 3,3-di (aminoethyl)-1-hydroxyl-2-carbonyl-1-triazene]",,,,by 35-45%,by 45-55%,by 75-85%,by 25-35%,
"O=C(NCCO[N+](=O)[O-])c1cccnc1 [Nicorandil, nicorandil]",,,,by 65-75%,,by 85-95%,by 30-40%,
CCOC(=O)[N-]c1cn(N2CCOCC2)n[o+]1 [Molsidomine],20-30%,15%-35%,20-70%,by 35-45%,,by 75-85%,by 35-45%,
